Columns and labels:
[1] = Optical characterization (excitation/emission maxima, molar extinction coefficient); assay type: physicochemical
Procedure: A dual-beam UV-VIS spectrophotometer (Lambda 40, Perkin Elmer) was used to determine the absorbance (Abs) of the compounds of the invention. Emission/excitation (Em/Ex) spectra were carried out on a spectrofluorometer (FluoroLog-3 1IHR-320, Horiba Jobin Yvon) equipped with an F-3018 integrating sphere accessory. The measurements were performed using an excitation wavelength at maximum absorbance of different dyes, and the sample was excited with a 450W Xenon Light Source. Detection was performed by photomultiplier tubes (PMT-NIR) cooled detector or by TBX-04 detector. Dye solutions were carefully prepared to have an absorbance lower than 0.1 (optical densities) to minimize re-absorption phenomena.
The compounds of the invention were characterized in terms of their optical properties in vitro in aqueous medium (i.e., water/PBS pH 7.4) and in a clinical chemistry control serum (Seronorm, Sero S A), mimicking the chemical composition and optical properties of human serum. All solutions were freshly prepared. In particular, the compounds of the invention are characterized by absorption maxima comprised in the range from about 750 nm to 780 nm.
The excitation and emission maxima in PBS and Seronorm and the molar extinction coefficient (E) in water of representative compounds of formula (I) are shown in Table I in comparison with the known CA-IX targeting fluorescent probe named Hypoxyfluor-1 (HF-1, for instance disclosed in Bioconjugate Chem 2018, 29, 3320-3331). […] Moreover, the extinction coefficients were higher than […] for all compounds.

[2] = system: HT-29 colorectal tumor; assay: In vivo optical imaging of HT-29 tumor bearing mice (tumor-to-background ratio); conditions: 1 nmol/mouse intravenous, 24 hours after administration; tumor vs hind limb muscle
Procedure: HT-29 cells were collected and washed once with serum-free medium. Five million HT-29 cells were suspended in 0.1 mL serum-free medium and injected subcutaneously in the right flank of 5 weeks old mice. Tumor development was followed by caliper measurement twice a week, from 7 days after inoculation. Tumor volume was calculated according to the formula: (L*W2)/2, where L and W are the maximum length and width of the tumor.
Optical Imaging experiments on HT-29 tumor bearing animals were performed after administration of HF-1, as reference compound, and compounds 1, 2 and 3, all at a dose of 1 nmol/mouse in an administration volume of 0.1 mL (corresponding to about 5 mL/kg, considering a 20 g-mouse) at an injection rate of about 1 mL/min, by the IVIS Spectrum system when the tumor reached at least 200 mm^3 volume.
For each group, in vivo OI experiments were performed at 0.5, 1, 2, 3, 4, 6 and 24 hours after intravenous administration of the fluorescent compounds. During imaging experiments animals were maintained under gaseous anesthesia. Regions of interest (ROIs) were drawn on the tumor and on a reference background healthy region (hind limb muscle) of the mouse for each fluorescence image at every time point to evaluate signal intensity in the tissues (expressed as Average Radiant Efficiency). The ratio between the fluorescence signal in the tumor and in the background healthy tissue (tumor-to-background ratio, TBR) was then calculated to assess the contrast.
All the compounds of the invention and HF-1 were tested at a dose of 1 nmol/mouse.

[3] = Ex vivo biodistribution, organ-to-muscle ratio; assay type: in vivo, mice; conditions: 1 nmol/mouse, 24 hours after administration
Procedure: (§1) The ex vivo biodistribution of the representative compounds 1, 2 and 3 and of the reference compound HF-1 (at 1 nmol/mouse) was evaluated in HT-29 excised tumors and tissues at the end of the in vivo OI sessions 24 hours post intravenous administration. At the end of the in vivo experiment, animals were euthanized by overdose of gaseous anesthesia followed by cervical dislocation. Tumor tissue, muscle, and other organs of interest were removed for ex vivo fluorescent signal measurements. The fluorescence signal intensity was measured by the IVIS Spectrum system. Regions of interest (ROIs) were drawn around each organ and tumor using the Living Image Software (PerkinElmer) and evaluating signal intensity in the tissues (expressed as Average Radiant Efficiency). The ratio between the fluorescence signal in the organs and tumor was then calculated to assess the contrast to hind limb muscle (representing the background).
Moreover, FIG. 6 (b) and Table VIII show the accumulation and distribution of the fluorescent probes in the dissected organs, reporting the ex vivo values of organs-to-muscle ratio from samples collected at 24 hours after the administration of representative compounds 1, 2 and 3 and of the reference compound HF-1 (1 nmol/mouse).

[4] = system: HT-29 cells; assay: Receptor-mediated uptake: competition with 100x excess of acetazolamide in HT-29 cells; assay type: cell-based, human; conditions: 1 μM, 2 hours at 37° C., relative to uptake without acetazolamide
Procedure: The HT-29 cells were used as in vitro model to assess the cell uptake of the CA-IX targeting compounds of the invention, more specifically whether cellular internalization of compounds occurred after targeting to cell-surface-expressed CA-IX. Cellular uptake was evaluated by flow cytometry. […] Treatment with unconjugated dyes were used to estimate non-specific CA-IX-independent cellular uptake. Cell incubation on ice was used to discriminate the cell-associated fluorescence deriving from internalized and cell-surface associated compounds (37° C.), from the one deriving from solely cell surface-bound compounds (on ice). Treatment of HT-29 cells, grown in 24-well plates, was performed by rinsing cells in DPBS and then by incubation with treatment solutions, for the indicated times and temperatures, in the dark. At the end of treatment, cells were rinsed 3 times with cold DPBS, and detached from the plate with StemPro® Accutase® Cell Dissociation Reagent, collected in 1.5 mL tubes after dilution in DPBS and centrifuged (5 minutes, 350 RCF, 4° C.). The supernatant was then discarded, and the cell pellet was resuspended in 300 μL of cold FACS buffer, or in a suitable volume in order to obtain no more than 1,000 recorded events per μL during FACS analysis. Samples were analyzed with the flow cytometer Accuri™ C6 (BD Biosciences) using the 640 nm excitation laser and the emission 780/60 nm filter. At least 15000 valid events were collected for each sample. At the end of analysis, each sample was plotted in histograms, being X the fluorescence intensity (FL4-A) in log scale and Y the counts. Usually, a gaussian distribution of the cell population was observed. The data retrieved were the mean fluorescence of each population, considered the fluorescence intensity value of the corresponding sample. Independent replicates were performed for each experimental condition. Normalized cell-associated fluorescence was calculated with the following formula: […]

[5] = system: HT-29 tumor; assay: Ex vivo tumor-to-background ratio in excised HT-29 tumors; design: species or system mice; conditions: 1 nmol/mouse, samples collected 24 hours after administration; tumor vs hind limb muscle
Procedure: as §1

SMILES	Max Em ([1]; PBS pH 7.4)	Max Ex ([1]; PBS pH 7.4)	Max Em ([1]; Seronorm)	Max Ex ([1]; Seronorm)	in vivo TBR (mean ± SD) [2]	Organ-to-muscle ratio, intestine [3]	Organ-to-muscle ratio, kidney [3]	Organ-to-muscle ratio, liver [3]	Organ-to-muscle ratio, skin [3]	Organ-to-muscle ratio, spleen [3]	Organ-to-muscle ratio, stomach [3]	% uptake in presence of 100x excess of acetazolamide [4]	ex vivo TBR ± SD, HT-29 tumor [5]
CC1(C)C(/C=C/C2=C(Oc3ccc(S(=O)(=O)O)cc3)C(=C/C=C3/N(CCCCS(=O)(=O)O)c4ccc(S(=O)(=O)O)cc4C3(C)C)/CCC2)=[N+](CCCCS(=O)(=O)[O-])c2ccc(C(=O)NCCCCCCCC(=O)Nc3nnc(S(N)(=O)=O)s3)cc21 [Compound 3]	802 nm	776 nm	810 nm	792 nm	2.2 ± 0.6	1.5 ± 0.2	4.7 ± 1.6	3.1 ± 0.6	1.0 ± 0.1	1.0 ± 0.1	3.5 ± 0.3	18.1 ± 11.5%	5.8 ± 2.2
CC1(C)C(/C=C/C=C/C=C/C=C2/N(CCCCS(=O)(=O)O)c3ccc(C(=O)NC[C@H](O)[C@@H](O)[C@H](O)[C@H](O)CO)cc3C2(C)C)=[N+](CCCCS(=O)(=O)[O-])c2ccc(C(=O)NCCCCCCCC(=O)Nc3nnc(S(N)(=O)=O)s3)cc21 [Compound 1]	783 nm	752 nm	791 nm	768 nm	5.9 ± 1.2	1.5 ± 0.3	8.3 ± 1.9	3.3 ± 1.1	1.1 ± 0.2	0.5 ± 0.1	11.3 ± 3.2	16.4 ± 1.9%	16.4 ± 4.4
CC1(C)C(/C=C/C=C/C=C/C=C2/N(CCCCS(=O)(=O)O)c3ccc(S(=O)(=O)O)cc3C2(C)C)=[N+](CCCCS(=O)(=O)[O-])c2ccc(C(=O)NCCCCCCCC(=O)Nc3nnc(S(N)(=O)=O)s3)cc21 [Compound 2]	784 nm	754 nm	788 nm	768 nm	5.1 ± 1.9	1.2 ± 0.1	4.0 ± 1.7	2.7 ± 0.4	1.6 ± 0.4	1.0 ± 0.1	7.1 ± 1.2	28.4 ± 2.2%	15.2 ± 5.9

Source: US20250352675A1, “CA-IX TARGETING FLUORESCENT PROBES” (BRACCO IMAGING S.P.A., priority 2022, published 2025)
